Data published in US20110045101A1, “FUNGICIDAL SUBSTITUTED AZOLES” (E.I. Du Pont De Nemours and Company, priority 2009, published 2011).
Marks after values point to notes of the source that are not given here.

Legend:
Type in all cases: in vivo
Conditions in all cases: 100 = 100% disease control
Septoria tritici = experiment: Test G: wheat leaf blotch on wheat seedlings, sprayed the day before inoculation, visual disease rating
Procedure, shortened: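 Seedlings receive a protective spray of test suspension in acetone/water carrying 250 ppm surfactant, mostly at 200 ppm and at 40 ppm where marked. They are inoculated the next day, kept saturated at 24° C for 48 h, then held at 20° C for 19 days before visual scoring.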

[1] = test system: Erysiphe graminis f. sp. tritici; experiment: Test J: wheat powdery mildew on wheat seedlings, sprayed the day before inoculation, visual disease rating
Procedure, shortened: (§1)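 Ratings reflect a 200 ppm spray (≈500 g/ha) unless marked as 40 ppm. Plants were sprayed to run-off. The spray suspension was acetone/purified water 50/50 containing 250 ppm Trem 014, after first dissolving compound in acetone at 3% of final volume.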

Septoria nodorum = experiment: Test F: wheat glume blotch on wheat seedlings, sprayed the day before inoculation, visual disease rating
Procedure, shortened: as §1

[2] = test system: Puccinia recondita f. sp. tritici; experiment: Test I: wheat leaf rust on wheat seedlings, sprayed the day before inoculation, visual disease rating
Procedure, shortened: as §1

Alternaria solani = experiment: Test D: tomato early blight, sprayed the day before inoculation, visual disease rating
Procedure, shortened: as §1

Botrytis cinerea = experiment: Test C: tomato Botrytis on tomato seedlings, sprayed the day before inoculation, visual disease rating
Procedure, shortened: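 Disease scored by eye on tomato seedlings inoculated with Botrytis cinerea a day after treatment. Treatment was a run-off spray at 200 ppm (equivalent to 500 g/ha), or 40 ppm where marked, in acetone/water carrying 250 ppm Trem 014.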

[3] = test system: Puccinia recondita f. sp. tritici; experiment: Test H: wheat leaf rust, test suspension sprayed after inoculation of wheat seedlings, visual disease rating
Procedure, shortened: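 Wheat seedlings inoculated with P. recondita spores, held 24 h saturated at 20 °C, then 2 days in growth chamber at 20 °C; compound suspension (acetone/water with Trem 014) sprayed to run-off afterwards. Rated visually; 200 ppm (≈500 g/ha) unless marked *, which denotes 40 ppm.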

[4] = 200 ppm, 0 = no control relative to controls

Compound	Test G disease control rating (Septoria tritici; [4]) [%]	Test J disease control rating [1, 4] [%]	Test F disease control rating (Septoria nodorum; [4]) [%]	Test I disease control rating [2, 4] [%]	Test D disease control rating (Alternaria solani; [4]) [%]	Test C disease control rating (Botrytis cinerea; [4]) [%]	Test H disease control rating [3, 4] [%]	further results
COc1cc(OC)c(Cl)c(-n2cnc(Br)c2-c2ccc(Cl)cc2F)c1 [compound 641]	99	83	94	100	96	95	100	
COc1cc(F)c(-c2c(Cl)ncn2-c2ccc(OC(F)F)cc2)c(F)c1 [compound 557]	96	87	78	99	99	100	43	
COc1cc(C#N)cc(F)c1-c1c(Cl)nc(Cl)n1-c1ccc(Cl)c(F)c1 [compound 575]	73	72	0	76	0	96	0	
COc1cc(F)c(-c2c(Br)nc(Cl)n2-c2ccc(C(F)(F)F)nc2)c(F)c1 [compound 706]	99	100	0	86	100	57	25	
Fc1cccc(-n2cnc(Cl)c2-c2c(F)cc(F)cc2F)c1 [compound 362]	86	49	0	83	99	100	0	
Fc1ccc(F)c(-c2c(Cl)ncn2Cc2ccc(Cl)cc2)c1F [compound 266]								Test G disease control rating (Septoria tritici; 200 ppm, 0 = no control): 94%; Test J disease control rating ([1]; 200 ppm, 0 = no control): 99%; Test F disease control rating (Septoria nodorum; 200 ppm, 0 = no control): 97%; Test I disease control rating ([2]; 200 ppm, 0 = no control): 99%; Test D disease control rating (Alternaria solani; 200 ppm, 0 = no control): 100%; Test C disease control rating (Botrytis cinerea; 200 ppm, 0 = no control): 100%; Test H disease control rating ([3]; 200 ppm, 0 = no control): 98%
Fc1ccc(-n2c(Cl)nc(Br)c2-c2ccc(Cl)c(F)c2)c(Cl)c1 [compound 326]	96	100	51	98	100	100	67	
COc1ccc(F)c(-c2c(Cl)nc(Cl)n2-c2ccc(Cl)cc2)c1Cl [compound 481]	95	100	99	97	100	100	0	
O=C(O)Cc1nc(Br)c(-c2c(F)cccc2F)n1-c1ccc(Cl)cc1 [Compound 570, 4-bromo-1-(4-chlorophenyl)-5-(2,6-difluorophenyl)-1H-imidazole-2-acetic acid]								pest or weed control at 200 ppm (Septoria tritici; Zymoseptoria tritici, 504 h, 200 ppm, 0 = no control relative to controls): 97%; pest or weed control at 200 ppm ([1]; Blumeria graminis, 168 h, 200 ppm, 0 = no control relative to controls): 69%; pest or weed control at 200 ppm (Septoria nodorum; Parastagonospora nodorum, 264 h, 200 ppm, 0 = no control relative to controls): 0%; pest or weed control at 200 ppm ([2]; Puccinia recondita, 168 h, 200 ppm, 0 = no control relative to controls): 13%; pest or weed control at 200 ppm (Alternaria solani; Alternaria solani, 168 h, 200 ppm, 0 = no control relative to controls): 0%; pest or weed control at 200 ppm (Botrytis cinerea; Botrytis cinerea, 120 h, 200 ppm, 0 = no control relative to controls): 0%; pest or weed control at 200 ppm ([3]; Puccinia recondita, 96 h, 200 ppm, 0 = no control relative to controls): 0%
COc1cc(F)c(-c2cnc(Cl)n2-c2ccc(C(F)(F)F)nc2)c(F)c1 [compound 699]	99	99	0	41	99	100	0	
COC(=O)c1ccc(-n2c(Cl)nc(Cl)c2-c2c(F)cccc2F)cc1 [compound 649]								Test G disease control rating (Septoria tritici; 40 ppm (marked *)): 97* %; Test J disease control rating ([1]; 40 ppm (marked *)): 0* %; Test F disease control rating (Septoria nodorum; 40 ppm (marked *)): 0* %; Test I disease control rating ([2]; 40 ppm (marked *)): 61* %; Test D disease control rating (Alternaria solani; 40 ppm (marked *)): 0* %; Test C disease control rating (Botrytis cinerea; 40 ppm (marked *)): 0* %; Test H disease control rating ([3]; 40 ppm (marked *)): 0* %
Fc1ccc(-n2c(Br)nc(Br)c2-c2c(F)cc(F)cc2F)cc1 [compound 462]								Test G disease control rating (Septoria tritici; 40 ppm (marked *)): 96* %; Test J disease control rating ([1]; 40 ppm (marked *)): 99* %; Test F disease control rating (Septoria nodorum; 40 ppm (marked *)): 0* %; Test I disease control rating ([2]; 40 ppm (marked *)): 78* %; Test D disease control rating (Alternaria solani; 40 ppm (marked *)): 100* %; Test C disease control rating (Botrytis cinerea; 40 ppm (marked *)): 100* %; Test H disease control rating ([3]; 40 ppm (marked *)): 0* %
COc1cc(F)c(-c2c(Cl)nc(Cl)n2-c2ccc(C)nc2)c(F)c1 [compound 553]	99	100	100	100	100	100	100	
COc1cc(F)c(-c2c(Cl)nc(Br)n2-c2ccc(OC(F)(F)F)cc2)c(F)c1 [compound 548]	96	100	94	99	100	98	0	
Fc1cc(F)c(-c2c(Cl)ncn2-c2ccc(OC(F)(F)F)cc2)c(F)c1 [compound 587]	97	97	0	0	80	25	7	
COc1cc(F)c(-c2c(N(C)C)ncn2Cc2ccc(Cl)cc2)c(F)c1 [compound 269]								Test G disease control rating (Septoria tritici; 200 ppm, 0 = no control): 83%; Test J disease control rating ([1]; 200 ppm, 0 = no control): 0%; Test F disease control rating (Septoria nodorum; 200 ppm, 0 = no control): 87%; Test I disease control rating ([2]; 200 ppm, 0 = no control): 9%; Test D disease control rating (Alternaria solani; 200 ppm, 0 = no control): 0%; Test C disease control rating (Botrytis cinerea; 200 ppm, 0 = no control): 100%; Test H disease control rating ([3]; 200 ppm, 0 = no control): 9%
CCOc1cc(F)c(-c2c(Cl)ncn2-c2ccc(C)cc2)c(F)c1 [compound 723]	97	95	0	68	99	100	66	
Cc1nc(Cl)c(-c2c(F)cc(F)cc2F)n1-c1cccc(F)c1 [compound 370]	89	100	87	100	100	99	100	
COc1cc(F)c(-n2cnc(C)c2-c2cccc(F)c2)c(F)c1 [compound 683]								Test G disease control rating (Septoria tritici; 40 ppm (marked *)): 67* %; Test J disease control rating ([1]; 40 ppm (marked *)): 98* %; Test F disease control rating (Septoria nodorum; 40 ppm (marked *)): 0* %; Test I disease control rating ([2]; 40 ppm (marked *)): 0* %; Test D disease control rating (Alternaria solani; 40 ppm (marked *)): 97* %; Test C disease control rating (Botrytis cinerea; 40 ppm (marked *)): 100* %; Test H disease control rating ([3]; 40 ppm (marked *)): 8* %
Cc1ccc(-n2cnc(Br)c2-c2c(F)ccc(F)c2Cl)cc1 [compound 410]	100	100	0	99	99	98	0	
N#Cc1ccc(-n2cnc(Cl)c2-c2c(F)ccc(C#N)c2F)cc1 [compound 387]	0	0	0	0	0	0	0	
Fc1cc(F)c(-c2c(Cl)nc(Br)n2-c2ccc(OC(F)(F)F)cc2)c(F)c1 [compound 606]	99	100	0	28	100	99	0	
COc1cc(F)c(-c2c(Cl)nc(Br)n2-c2ccc(C)cc2F)c(F)c1 [compound 654]								Test G disease control rating (Septoria tritici; 40 ppm (marked *)): 98* %; Test J disease control rating ([1]; 40 ppm (marked *)): 100* %; Test F disease control rating (Septoria nodorum; 40 ppm (marked *)): 91* %; Test I disease control rating ([2]; 40 ppm (marked *)): 99* %; Test D disease control rating (Alternaria solani; 40 ppm (marked *)): 99* %; Test C disease control rating (Botrytis cinerea; 40 ppm (marked *)): 100* %; Test H disease control rating ([3]; 40 ppm (marked *)): 100* %
